Test results from ChEMBL document CHEMBL1129896, “New non peptidic C5a receptor antagonists” (Bioorg Med Chem Lett, 1997).

Each compound was assayed against T1, C5a anaphylatoxin chemotactic receptor 1 (Homo sapiens, UniProt P21730) (assay: Binding affinity against C5a anaphylatoxin chemotactic receptor assayed on human monocyte cell line U937). Details: not given.
T1 sequence (P21730 whole entry): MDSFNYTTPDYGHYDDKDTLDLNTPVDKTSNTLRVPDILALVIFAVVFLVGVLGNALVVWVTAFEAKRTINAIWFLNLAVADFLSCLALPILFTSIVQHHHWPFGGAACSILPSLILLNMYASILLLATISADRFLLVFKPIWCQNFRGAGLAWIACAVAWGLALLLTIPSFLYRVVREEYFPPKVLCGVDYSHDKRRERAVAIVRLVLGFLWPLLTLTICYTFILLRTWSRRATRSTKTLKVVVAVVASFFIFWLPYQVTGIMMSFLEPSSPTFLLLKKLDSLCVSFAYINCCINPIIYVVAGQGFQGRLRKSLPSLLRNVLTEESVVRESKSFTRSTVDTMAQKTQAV
Type: cell-based, U-937

Compared with `CNC(N)=Nc1ccc(OCCCc2ccccc2)c(OCc2ccccc2)c1`, `CNC(N)=Nc1ccc(OCCCCc2ccccc2)c(OCc2ccccc2)c1` is 1.5-fold lower in IC50: 6 µM for the first, 4 µM for the second.

First: C/N=C(/N)Nc1ccc(OCCC2CCCCC2)c(-c2ccccc2)c1
Second: C/N=C(/N)Nc1ccc(OCC2CCCCC2)c(OCc2ccccc2)c1
The IC50 of the first is 8-fold lower: 1 µM for the first, 8 µM for the second.

`C/N=C(/N)Nc1ccc(OCc2ccccc2)c(-c2cccs2)c1` and `C/N=C(/N)Nc1ccc(OCc2ccccc2)c(-c2cccc(F)c2)c1` are within 1.5-fold of each other in IC50: 9 µM for the first, 8 µM for the second.

First: CCCCOc1ccc(NC(=N)NC)cc1OCc1ccccc1
Second: CNC(=N)Nc1ccc(OCc2ccccc2)c(-c2cccc(OC)c2)c1
The IC50 of the first is 3.3-fold higher: 30 µM for the first, 9 µM for the second.

`C/N=C(/N)Nc1ccc(OCc2ccccc2)c(-c2cccc3ccccc23)c1` and `C/N=C(/N)Nc1ccc(OCc2ccccc2)c(Oc2ccccc2)c1` are within 1.5-fold of each other in IC50: 4.5 µM for the first, 4 µM for the second.

First: CNC(N)=Nc1ccc(OCc2ccccc2)c(-c2ccccc2)c1
Second: CNC(N)=Nc1ccc(OCCCc2ccccc2)c(-c2ccccc2)c1
The IC50 of the first is 2-fold higher: 2 µM for the first, 1 µM for the second.

Compared with `N=C(N)Nc1ccc(OCc2ccccc2)c(OCc2ccccc2)c1`, `C/N=C(\N)Nc1ccc(OCc2ccccc2)c(OCc2ccccc2)c1` is lower in IC50: > 100 µM for the first, 30 µM for the second. The second is the more potent here.

`CNC(N)=Nc1ccc(OCCc2ccccc2)c(OCc2ccccc2)c1` and `CNC(N)=Nc1ccc(OCCC2CCCCC2)c(OCc2ccccc2)c1` are within 1.5-fold of each other in IC50: 7.5 µM for the first, 9 µM for the second.

Compared with `CNC(N)=Nc1ccc(OCc2ccccc2)c(OC2CCCC2)c1`, `CNC(N)=Nc1ccc(OCC2CCCCC2)c(-c2ccccc2)c1` is 8.3-fold lower in IC50: 25 µM for the first, 3 µM for the second.

`CNC(N)=Nc1ccc(OCc2ccccc2)c(-c2ccc(OC)cc2)c1` and `CNC(N)=Nc1ccc(OCc2ccccc2)c(-c2ccc(Cl)cc2)c1` are within 1.5-fold of each other in IC50: 54 µM for the first, 50 µM for the second.

Each compound was assayed against T2, C5a anaphylatoxin chemotactic receptor 1 (Homo sapiens) (UniProt P21730) (assay: Tested in vitro for the inhibition against C5a anaphylatoxin chemotactic receptor assayed on human monocyte cell line U937 at 30 uM). Details: U-937.
T2 sequence (whole entry): T1 sequence (P21730 whole entry)
Type: cell-based

First: CNC(=N)Nc1ccc(OC)c(OCc2ccccc2)c1
Second: C/N=C(/N)Nc1ccc(Oc2ccccc2)c(OCc2ccccc2)c1
The inhibition of the first is lower: 20% for the first, 32% for the second.

Compared with `C/N=C(/N)Nc1ccc(OCc2ccccc2)c(-c2ccc(F)cc2)c1`, `CC/N=C(\N)Nc1ccc(OCc2ccccc2)c(OCc2ccccc2)c1` is higher in inhibition: 20% for the first, 40% for the second.

What follows are compounds tested against T2, C5a anaphylatoxin chemotactic receptor 1 (Homo sapiens) (assay: Tested in vitro for the inhibition against C5a anaphylatoxin chemotactic receptor assayed on human monocyte cell line U937; Inactive at 30 uM). Details: U-937.
Type: cell-based

`C/N=C(/N)Nc1ccc(OCc2ccccc2)c(OCCc2ccccc2)c1` and `CC(=N)Nc1ccc(OCc2ccccc2)c(OCc2ccccc2)c1` cannot be ordered by inhibition: < 20% for the first, < 20% for the second.

`C/N=C(/N)c1ccc(OCc2ccccc2)c(OCc2ccccc2)c1` and `Nc1ccc(OCc2ccccc2)c(OCc2ccccc2)c1` cannot be ordered by inhibition: < 20% for the first, < 20% for the second.

`NCc1ccc(OCc2ccccc2)c(OCc2ccccc2)c1` and `N=C(N)NCc1ccc(OCc2ccccc2)c(OCc2ccccc2)c1` cannot be ordered by inhibition: < 20% for the first, < 20% for the second.

`CNC(=N)Cc1ccc(OCc2ccccc2)c(OCc2ccccc2)c1` and `CNC(=N)Nc1ccc(OCc2ccccc2)c(-c2ccccc2OC)c1` cannot be ordered by inhibition: < 20% for the first, < 20% for the second.

Each compound was assayed against T1, C5a anaphylatoxin chemotactic receptor 1 (assay: Compound was evaluated for the antagonistic activity against C5a anaphylatoxin chemotactic receptor in human neutrophil C5a stimulated respiratory burst assay). Details: not given.
Type: functional

`CNC(N)=Nc1ccc(OCCc2ccccc2)c(-c2ccccc2)c1` was tested, and the IC50 was 0.8 µM.
